For the experiment, the system named is solid tumor malignancies. The experiment in a line: Efficacy study in humans with solid tumors (RECIST, CT scan or MRI). Also on record: key to Response time and response: PR means partial response; CR means complete response. The class given is in vivo, human. An excerpt:
Complete Response (CR), as used herein, unless otherwise indicated, refers to disappearance of all measurable and nonmeasurable lesions and no appearance of new lesions in a patient under the treatment of compound of formula 1, its pharmaceutically acceptable salt or solvate thereof, or a mixture thereof.
Partial Response (PR), as used herein, unless other wise indicated, refers to at least a 30% decrease in the sum of the LDs of target lesions (taking as reference the baseline sum), without progression of nontarget lesions and no appearance of new lesions in a patient under treatment of compound of formula 1, its pharmaceutically acceptable salt or solvate thereof, or a mixture thereof.
50 patients were treated under a dose-escalating multicenter study of patients with solid tumor malignancies not amenable to conventional therapies. The types of tumor malignancies that the patients had included colorectal carcinoma, renal cell carcinoma, esophageal carcinoma, thymus carcinoma, mastocytosis, lung cancer and multiple endocrine neoplasia type II and other malignances. Patients were treated in cohorts of 6 with escalating QD (once per day) doses of a maleate salt of a compound of formula 1. Each study cycle was a five week cycle consisting of 4 weeks of treatment followed by 1 week of rest (4/1 schedule) or a five week cycle of continuous dosing without any rest period.
Of these 50 patients, all patients were evaluated for efficacy determinations. Tumor size was measured at the end of each cycle of treatment. […] The partial response of four of these seven patients was confirmed by a repeat assessment four weeks later. The partial response of the other three patients has not been confirmed. The tumor shrinkage was determined by either CT scan or MRI as per RECIST criteria.

For the compound `Cc1[nH]c(/C=C2\C(=O)Nc3ccc(F)cc32)c(C)c1C(=O)NC[C@H](O)CN1CCOCC1` [compound 1, 5-[(Z)-(5-fluoro-2-oxo-1,2-dihydro-3H-indol-3-ylidene)methyl]-N-[(2S)-2-hydroxy-3-morpholin-4-ylpropyl]-2,4-dimethyl-1H-pyrrole-3-carboxamide], the “Response time and response” value is, setting by setting: (Patient 1, Renal cell carcinoma, 50 mg 4/1 QD, after 2nd cycle) “PR”; (Patient 1, Renal cell carcinoma, 50 mg 4/1 QD, at cycle 5) “CR”; (Patient 2, Biliary cell Carcinoma, 100 mg 4/1 QD, at cycle 5, confirmed) “PR at cycle 5, confirmed”; (Patient 3, Thyroid carcinoma, 150 mg QD 4/1, after 1st cycle, confirmed) “PR after 1st cycle,”; (Patient 4, Colon adenocarcinoma, 150 mg QD 4/1, after 1st cycle, not confirmed) “PR after 1st cycle, not”; (Patient 5, Renal cell carcinoma, 250 mg QD 4/1, after 1st cycle, confirmed) “PR after 1st cycle,”. For the same compound, the “Response time and response” value reads like this: (Patient 6, Alveolar soft tissue carcinoma, cycle 1 250 mg QD 4/1, cycle 2 and beyond 200 mg QD 4/1, not confirmed) “PR, not confirmed”; (Patient 7, Renal cell carcinoma, 150 mg continuous, after 1st cycle, not confirmed) “PR after 1st cycle, not”; (Patient 8, Thymoma, cycle 1 150 mg continuous, cycle 2 and beyond 100 mg continuous, not confirmed) “PR, not confirmed”. Besides, the “patients showing complete response” value (among the 50 patients) stood at 1 patient. Also, the “patients showing partial response” value (among the 50 patients) was determined as 7 patients. In addition, the “partial responses confirmed by a repeat assessment four weeks later” value (of the seven patients with partial response) is “four”.

The record behind these values is patent publication US20090012085A1, “DOSAGE FORMS AND METHODS OF TREATMENT USING A TYROSINE KINASE INHIBITOR” (priority 2005, published 2009).
